Data set [1] relates to polarized NHBE cells. The experiment in a line: Binding and internalization of cationic lipid:pDNA complexes (TOTO-1 label, trypan blue quenching). The note with it: Table 1; grades Very Effective / Mildly Effective. As to the method:
Cells were incubated with TOTO-1 or Rh-PE labeled complexes at 37° C. for the times noted in the figure legends. Following incubation, cells were washed 7 times with cold PBS and then fixed in 2% paraformadehyde for 20 min at 4° C. The membrane of the insert was removed and mounted using immuno-mount (Shandon, Pittsburgh, Pa.) containing 2 μg/ml DAPI (Molecular Probes). Bound and internalized complexes were observed under a fluorescence microscope (Olympus, AX-70). To observe only internalized complexes, cells were washed 2 times with cold PBS and then the fluorescence of surface bound complexes was quenched by a 10 min incubation with trypan blue (1 mg/ml; Diagnostic Systems, Inc., Gibbstown, N.J.) on ice. Cells were then washed an additional 5 times with cold PBS, fixed and mounted.
Polarized NHBE cells were cultured using a modified procedure based on the methods described by Yamaya et al., American Journal of Physiology, 265:L170-L177 (1993), Jiang et al., Science, 262:424-427 (1993) and Gray et al., American Journal of Respiratory Cell & Molecular Biology, 14:104-112 (1996). Briefly, first passage NHBE cells were plated at a density of 2.5×10^5 cells/cm^2 onto inserts (Millicell-PCF, 0.4 μm pore size, Millipore) coated with human placental collagen (Sigma). The culture medium was the same as that described above for growing NHBE cells as islands. Cultures were maintained under air-liquid interface conditions starting at day 3 following the initial seeding. Cells were considered ready for use when the trans-epithelial resistance was •1000 Ωcm^2.

Another data set has as its system CF patients. The note with it: cited from earlier work.
Data set [2] deals with polarized NHBE cells. The experiment in a line: In vitro transfection with GL-67:pCF1-SEAP, secreted alkaline phosphatase in apical supernatant. Type of data set: cell-based, human. The note with it: 0.5 μg/ml, 18 h before and after transfection, with or without Ca2+-free medium; FIG. 2A. The method, then: Prior to transfection, polarized NHBE cells on inserts were incubated in either Opti-MEM, Opti-MEM containing 0.1% EGTA, or in Ca^2+-free media (Gibco) in both sides of the insert for 30 min at 37° C. The cells were then washed 3 times with Opti-MEM, and incubated with unlabeled GL-67:pCF1-SEAP (40:53 μM) for 4 h at 37° C., after which they were washed 3 times with Opti-MEM. One ml of culture medium then was added to the outside of the insert (basal side) and 100 μl added to the inside of the insert (apical side). The supernatant from the apical side was collected on day 2 after transfection, heated at 65° C. for 1 h to denature endogenous alkaline phosphatases (Berger et al., Gene, 1988), and assayed in triplicate for secreted alkaline phosphatase (SEAP) activity using an alkaline phosphatase reagent (Sigma) and human placental alkaline phosphatase (Calbiochem, La Jolla, Calif.) as a standard.
(§1) To inhibit NHBE cell proliferation, aphidicolin (0.5 μg/ml; Sigma) was added to culture medium on the basal side of the polarized NHBE cells for 18 h at 37° C. The cells were then transfected as described above except that the concentrations of cationic lipid and pDNA were 80 and 107 μM, respectively. After transfection, aphidicolin was present in the culture medium until the cells were harvested. […] Retinoic acid enhanced the inhibitory effect of aphidicolin on cell proliferation (Chou, R. H. et al., Cell & Tissue Kinetics, 18:387-97, 1985).

In another data set the test system is NHBE cells. The data set is described as follows: Cell proliferation assay, [methyl-3H]-thymidine incorporation into DNA. The format is cell-based, human. As to the method:
The proliferation of NHBE cells was assessed by measuring the amount of [methyl-^3H] thymidine incorporation into DNA (Fasbender et al., Gene Therapy, 4:1173-1180, 1997). [Methyl-^3H] thymidine (5 μCi/ml; Amersham, Arlington Heights, Ill.) was added to culture medium on the basal side of polarized NHBE cells which had been pre-treated with either Opti-MEM or Ca^2+-free medium. After 4 h, both groups of cells were washed 3 times with PBS and then lysed in a buffer containing 0.2% SDS, 100 mM Tris (pH=7.0), 5 mM EDTA, 200 mM NaCl, and 0.5 mg/ml proteinase K. The lysate was incubated at 65° C. for 30 min, microcentrifuged for 5 min and the supernatant placed into a fresh tube. An equal volume of isopropanol was added to precipitate the DNA. The precipitated DNA pellet was washed twice with 70% ethanol, dried, and resuspended in a 10 mM Tris-HCl, 0.5 mM EDTA buffer, pH 8.0. The DNA concentration was determined using A260/280 measurements. Tritium counts were measured using a Beckman LS6500 scintillation counter.
as §1
Background: Uptake of a labelled nucleoside into DNA is a usual measure of proliferation.

The next data set deals with mouse trachea. The data set is described as follows: Intranasal instillation of Ad2βgal-4, X-gal staining of airways. Type of data set: in vivo. The method, then:
Female BALB/c mice 9-12 weeks of age were purchased from Taconic (Germantown, N.Y.). In some groups, mice were instilled intranasally with 25 μl of a solution containing EGTA (pH 7.5), followed by 25 μl of 5% sucrose in PBS containing Adβgal-4 (2×10^8 IU). In other groups, mice were co-instilled with 25 μl of a solution prepared by mixing equal volumes of a 2× (4×10^8 IU/25 μl) Ad2βgal-4 solution in 10% sucrose with 2×EGTA prior to instillation.
Cytochemical localization of Ogal expression in the trachea was observed using 5-bromo-4-chloro-3-indolyl-β-D-galactopyranoside (X-gal; Sigma). In brief, cannulated mouse lungs were fixed for 10 min by infusion of a fixing solution (2% paraformaldehyde and 0.2% glutaraldehyde in PBS). The lungs were then rinsed twice with 50 mM glycine in PBS, filled with X-gal solution, and stained overnight. Staining was stopped by transfering the samples into the fixing solution.
Trachea with staining levels were defined on a scale of 0 to 3, 0 indicating no cells staining for βgal, and a value of 3 indicating a large number of cells positive for the transgene. To evaluate the effect of EGTA concentration on AdV-mediated gene transfer in the trachea, mice were pre-treated with various concentrations of EGTA 0.5 h before AdV instillation. In some animals, AdV and EGTA were co-instilled. To exclude the possibility that any observed enhancement of expression was due to a hyperosmotic effect of the EGTA solution, a 20% mannitol solution (osmolarity similar to 0.4M EGTA) was included as a control in both the pre-treatment and co-instillation models.

The next data set concerns mouse nose. The conditions noted are these: cited from earlier work.
Data set [3] can be described thus: Stabilization of cationic lipid:pDNA complexes by PEG-containing lipid. The format is physicochemical. The note with it: 1.14 mol % relative to total lipid. As to the method:
For example, at 1.14 mol % DMPE-PEG5000 (relative to the amount of total lipid), cationic lipid:pDNA complexes could be stabilized at pDNA concentrations exceeding 20 mM. Without PEG-containing lipids, a salt excipient, which is not preferred since an ionic excipient also depresses transfection activity, is required to maintain the lipid:pDNA ratio of the complex during certain methods such aerosolization. For more information regarding use of PEG derivatives the following references are specifically incorporated by reference: Simon J. Eastman et al., Human Gene Therapy, 8, pp. 765-773 (1997); Simon J. Eastman et al. Human Gene Therapy, p. 8, pp. 313-322 (1997).

The mark [4] stands for this setting: 0.5 μg/ml in culture medium containing 50 nM retinoic acid.

With `CCCCCCCCCC(=O)O[C@H](CC(=O)[O-])C[N+](C)(C)C` [Decanoylcamitine, decanoylcarnitine], the “Effects of Tight Junction Disrupting Compounds on Cationic Amphiphile: DNA Complex Binding” value (from here on “Effects … DNA Complex Binding”) in the data set with polarized NHBE cells [1] was “Mildly Effective”.

As to `O=C(O)CN(CCN(CC(=O)O)CC(=O)O)CC(=O)O` [EDTA, Ethylenediaminetetraacetic acid], in the data set on polarized NHBE cells [1], the “Effects … DNA Complex Binding” value is “Very Effective”. Further, the toxic side-effects result in the data set on CF patients (0.2 g in 10 ml injected, or 0.6 g in 300 ml nebulized over 24 h, via tracheostomy once per day for 3 days) was “No toxic side-effects were noted”. The adverse effects entry in the data set on CF patients (children with CF, aerosol of 0.05M 3 times/day for 2 weeks) is on record as “no adverse effects”. Moreover, the tolerability result in the data set with CF patients (children with CF, aerosol of 0.1 M 3 times/day for 2 weeks) was “Three out of ten could not tolerate”. In addition, in the data set with CF patients (same phase I trial), the respiratory function entry was “remained unchanged”; the “serum calcium and magnesium levels” value is on record as “remained normal”.

With `CCCCCCCCCC(=O)[O-].[Na+]` [Sodium Caprate, sodium caprate], the “Effects … DNA Complex Binding” value with polarized NHBE cells [1] is “Mildly Effective”.

As to `C[C@H](CCC(=O)NCC(=O)[O-])[C@H]1CC[C@H]2[C@@H]3[C@H](O)C[C@@H]4C[C@H](O)CC[C@]4(C)[C@H]3C[C@H](O)[C@]12C.[Na+]` [Sodium glycocholate, sodium glycocholate], the “Effects … DNA Complex Binding” value in the data set with polarized NHBE cells [1] is recorded as “Mildly Effective”.

For `C[C@@]1(CO)[C@H](O)CC[C@@]2(C)[C@H]1CC[C@H]1C[C@@H]3C[C@@]12CC[C@]3(O)CO` [aphidicolin], the “effect on gene expression from polarized NHBE cells” value with polarized NHBE cells [2] is listed as “no effect on gene expression”. For the same compound, in the data set with NHBE cells (setting [4]), the “inhibition of proliferation of NHBE cells” value is “sufficient to inhibit proliferation” and the toxicity entry is given as “minimal toxicity”. Also, in the data set with NHBE cells (NHBE cells grown on plastic, presence of aphidicolin), the “[methyl-3H]-thymidine incorporation” value is on record as 6,600±600 cpm/μg DNA.

As to `OC[C@@H](O)[C@@H](O)[C@H](O)[C@H](O)CO` [mannitol], in the data set on mouse trachea (20% pre-treatment, compared with AdV alone, FIG. 4), the “X-gal staining in the trachea” value was “not different”. Besides, the “enhancement in gene transfer” value in the data set on mouse trachea (pre-treating with hyperosmotic solution, FIGS. 4 & 5A) was “No comparible enhancements”.

For polidocanol, the “AdV-mediated gene expression in respiratory epithelial cells” value with mouse nose is given as “enhanced AdV-mediated gene expression”.

Regarding “polyethylene glycol 5000-dimyristoylphosphatidylethanolamine [DMPE-PEG5000]”, the “pDNA concentration at which cationic lipid:pDNA complexes could be stabilized” value in data set [3] is reported as “exceeding 20 mM”.

The values are drawn from patent US6465007B1, “Transgene expression in polarized cells” (Genzyme Corporation, priority 1998, dated 2002).
